Measurements published in patent US9956181B2, “Composition of nanoformulated lycopene and method of using the composition” (priority 2015, dated 2018).

Test system: genes involved in osteoblast activity, osteoclastogenesis, apoptosis and oxidative stress enzymes
Experiment: OVX rat study: qRT-PCR of bone marrow and flushed femur
Type: in vivo, Wistar rats
Conditions: for decrease in concentration ratio of RANKL/OPG: P<0.05
Protocol: FIG. 10 depicts […] analysis of genes involved in osteoblast activity, osteoclastogenesis, apoptosis and oxidative stress enzymes, in accordance with embodiments of the present invention. Bone marrow (A) was analyzed for relative mRNA abundance of the osteoclastogenesis gene factor of activated T-cells (Nfatc1), while the flushed femur (B-D) was used to examine genes involved in osteoblast activity and function: type 1 collagen (Colla1), osteocalcin (Ocn), alkaline phosphatase (Alp), osteoprotegerin (Opg), and receptor activator for NF-kappa B ligand (Rankl) in sham-operated (SHAM) and ovariectomized (Ovx) rats treated with placebo or lycopene (15, 30 and 45 mg/kg body weight per day) or alendronate (ALN) (2.0 ug/kg body weight per day) for 12 weeks. Bone marrow (F-H) was analyzed for relative mRNA abundance of oxidative enzyme: glutathione peroxidase (GPx), superoxide dismutase (SOD) and catalase (CAT) in sham-operated (SHAM) and ovariectomized (Ovx) rats treated with placebo or lycopene (15, 30 and 45 mg/kg body weight per day) or alendronate (ALN) (2.0 ug/kg body weight per day) for 12 weeks. Bone marrow (I) and the flushed femur (J-L) were analyzed for relative mRNA abundance of apoptotic genes. Genes of interest including, B-cell lymphoma homologous antagonist/killer (Bak1), caspase-3 (Casp3) and -9 (Casp 9) in sham-operated (SHAM) and ovariectomized (Ovx) rats treated with placebo or lycopene (15, 30 and 45 mg/kg body weight per day) or alendronate (ALN) (2.0 ug/kg body weight per day) for 12 weeks. Bars represent the mean±SD for 10 rats in each group.
A total of 264 Wistar female rats, ˜6 months old, were supplied by the Animal House at King Fahd Medical Research Center (KFMRC), KAU. Rats were housed in individual cages and maintained at 22° C. with a 12-h light/dark cycle. During the study period, rats were given standard rodent chow diet ad libitum (commercial rat cubes containing approximately 18% protein, 3% fat, 77% carbohydrate, and 2% of an inorganic-salt mixture with a vitamin supplement by weight, supplied by Grain Silos and Flour Mills Organization, Jeddah, Saudi Arabia) and water until the onset of intervention. Prior to surgery, rats were anesthetized with ketamine [(10% ketamine hydrochloride (80 mg/kg body weight), Cayman Chemical, Michigan, USA] and xylazine [(2% xylazine hydrochloride, 10 mg/kg body weight), Sigma-Aldrich Co., St. Louis, USA]. A single longitudinal skin incision was made on the dorsal midline at the level of the kidneys and both ovaries were ligated and removed to produce an ovariectomy in all OVX group animals. A SHAM-operated group, acting as a negative control for the effect of ovariectomy on bone parameters, underwent bilateral laparotomy, during which the ovaries were exposed but remained intact. […] The lycopene-supplemented groups were given lycopene (15, 30 and 45 mg/kg body weight per day) dissolved in corn oil by daily intra-gastric administration for the experimental period of 12 weeks. The SHAM, OVX and ALN control groups were given the same volume of corn oil without lycopene treatment. […] A 12-week randomized placebo-controlled study in order to examine the protective effects of lycopene supplementation on bone mass and fragility in OVX rats was concluded. Prior to surgery, body weight and bone mineral density (BMD) were obtained for all animals. Rats were randomized using a computer-generated randomization code into one of six groups: (1) sham-operated (SHAM; n=44); (2) ovariectomized control (OVX; n=44); (3) OVX lycopene-supplemented (15 mg/kg body weight per day) (n=44); (4) OVX lycopene-supplemented (30 mg/kg body weight per day) (n=44); (5) OVX lycopene-supplemented (45 mg/kg body weight per day) (n=44) and (6) OVX alendronate-treated (ALN) [2.0 μg/kg body weight per day subcutaneously (sc)] (n=44). Alendronate is an anti-resorptive agent for the treatment of osteoporosis and was used as a positive therapy control. […]

[1] = flushed femurs, lycopene treatment

With `CC(C)=CCC/C(C)=C/C=C/C(C)=C/C=C/C(C)=C/C=C/C=C(C)/C=C/C=C(C)/C=C/C=C(\C)CCC=C(C)C` [lycopene] the “Alp, Colla1 and Ocn mRNA” value (OVX rats, lycopene treatment) was “enhancing”, the RANKL expression (all three doses of lycopene) was “down-regulated” and the “Bak1 mRNA abundance compared to OVX control” value (bone marrow, lycopene treatment) was “up-regulated”. The “OVX-induced increase in Nfatc1 mRNA” value (bone marrow, lycopene, 12 weeks, restored to SHAM level) was “suppressed”, the “Casp 9 and Casp 3 gene expression” value [1] was “did not change” and the Colla1 gene expression [1] was “remained elevated”. The OPG expression (higher doses of lycopene) was “decreased”, the “decrease in concentration ratio of RANKL/OPG” value (lycopene 30 mg/kg body weight per day) was 18.9% and the “decrease in concentration ratio of RANKL/OPG” value (lycopene 45 mg/kg body weight per day) was 38.3%. The “GPX-1, CAT and SOD relative expression” value (lycopene treatment, to a level higher than SHAM) was “increased”.
